From patent publication US10406120B2, “Methods and compositions for treating kidney disorders” (Golden Biotechnology Corporation, priority 2013, dated 2019)

How the values were obtained:
superoxide anion = assay: FSGS model: superoxide anion / ROS determination (lucigenin, DHE); assay type: in vivo, BALB/c mice; conditions: FSGS mice
Method: (§1) Experiments described herein were performed on 8-week-old female BALB/c mice. The FSGS mice were injected intravenously with a single dose of adriamycin (0.1 mg/10 g body weight). The mice were given Compound 1 six hours before adriamycin injection by gavage daily till sacrifice. BALB/c mice intraperitoneal injected with normal saline were used as normal controls, while ASLN mice given vehicle (corn oil) by gavage were used as disease controls. Mice were killed at day 7, 14, or 21 after disease induction, and spleen, renal cortical tissue, and blood samples collected and stored appropriately until analysis. All animal experiments were performed with the ethical approval of the Institutional Animal Care and Use Committee of The National Defense Medical Center, Taiwan and performed according to the ethical rules in the NIH Guide for the Care and Use of Laboratory Animals.
Kidney in-situ superoxide anion production was determined by DHE labeling according to the known method. (Wu, et al., Nephrol Dial Transplant, 2008, 23: 3082-3090, or Ka, et al., J. Am. Soc. Nephrol. 2007, 18:2473-2485) Fluorescent images were quantified by counting the percentage of positive nuclei in the total nuclei per kidney cross section. Sera and kidney tissues were assessed for superoxide anion according to the known method. (Wu, et al., J Pineal Res, 2001, 30: 147-156, or Ka, et al., J. Am. Soc. Nephrol. 2007, 18:2473-2485) For ROS levels of serum, urine, and renal tissue, the samples were incubated with Krebs-HEPES buffer, and lucigenin (Sigma-Aldrich Chemical Co, MO) at 1.25 mM was used as substrate. Luminescence counts were obtained in duplicate at 15 sec intervals by a microplate luminometer (Hidex Microplate Luminometer, Finland), as previously described (Kretzler, et al.,. Virchows Arch, 425: 181-193, 1994). The superoxide anion activity was expressed as relative luminescence units (RLU) per 15 min per mg of organ dry weight (i.e., RUL/15 min/mg) or RLU/15 min/ml.

TGF-β1 = assay: FSGS model: TGF-β1 in serum and kidney (ELISA, IHC); assay type: in vivo, BALB/c mice; conditions: FSGS mice
Method: as §1
For IHC, formalin-fixed and paraffin-embedded renal sections were prepared and incubated with primary antibodies against mouse Desmin (Lab Vision, CA, USA), CD3 (pan-T cell; Serotec, N.C., USA), F4/80 (monocytes/macrophages; Serotec), IL-6 (R&D Systems, MN, USA), NF-κB p65 (Cell Signaling Technology, MA, USA), collagen I, III, and IV (Southern Biotech, AL, USA), or TGF-β1 (Santa Cruz Biotechnology, CA, USA), biotinylated second antibodies (Dako, Glostrup, Denmark), and avidin-biotin-peroxidase complex (Dako). Semi-quantitative evaluation of staining was performed.
The TGF-β1 protein levels in serum and renal tissue were measured using the commercial ELISA kits (R&D Systems), according to the manufacturer's instructions. Samples were acidified with 1 N HCl and neutralized with 1.2 N NaOH/0.5 M HEPES to assay for the amount of TGF-β1.

IL-6 = assay: AcP-IgAN model: serum IL-6 ELISA; assay type: in vivo, B cell-deficient mice; conditions: AcP-IgAN mice
Method: B cell-deficient mice (B6.129S2-Igh-6tm1Cgn/J) were obtained from the Academia Sinica (Professor John T. Kung, Institute of Molecular Biology), and maintained at the animal center of the National Defense Medical Center, Taipei, Taiwan. AcP-IgAN was induced in the mice by daily injection of purified IgA anti-phosphorylcholine antibodies and pneumococcal C-polysaccharide (PnC) as described previously (Chao, et al., Kidney Int. 70:283-297; 2006). All animal experiments were performed with the approval of the Institutional Animal Care and Use Committee of The National Defense Medical Center, Taiwan, and were consistent with the NIH Guide for the Care and Use of Laboratory Animals.
Serum levels of IL-1β (eBiosceience, CA), IL-6 (eBiosceience), IL-18 (MBL, Japan), and MCP-1 (eBiosceience) were measured using commercial ELISA kits according to the manufacturer's instructions.

[1] = FSGS model: urine protein and renal function (BUN, Cr); assay type: in vivo, BALB/c mice; conditions: FSGS mice
Method: as §1
Urine samples were collected in metabolic cages at day 3, 7, 14, and 21, and urine protein was determined as described previously. (Shui, et al., Nephrol Dial Transplant, 21: 1794-1802, 2006) Serum samples were collected at day 7, 14, or 21 when mice were sacrificed to measure serum levels of BUN and Cr.

[2] = FSGS model: renal histopathology (H&E); assay type: in vivo, BALB/c mice; conditions: FSGS mice, 50 mg/kg by gavage daily, day 14 to day 21, vs control FSGS mice
Method: as §1, with “The mice were given Compound 1 six hours before adriamycin injection by gavage daily till sacrifice.” left out
Formalin-fixed and paraffin-embedded renal sections were prepared as described in Shui et al. for renal pathologic evaluation. (Shui, et al., Transl Res, 150: 216-222, 2007) Renal pathology and scoring of renal lesions were performed according to the known method disclosed in Shui. […] The number of glomeruli with EPHLs was expressed as a percentage of the total number of evaluated glomeruli according to methods disclosed before (see for example, Shui, et al., Nephrol Dial Transplant, 21: 1794-1802, 2006; Ka, et al., Nephrol Dial Transplant, 21: 288-298, 2006).

[3] = day 14 and day 21, vs control FSGS mice
[4] = 50 mg/kg by gavage daily, day 14 to day 21, vs control FSGS mice
[5] = day 7, among normal control, control FSGS and FSGS+Antroq mice

COC1=C(OC)[C@H](O)[C@H](C/C=C(\C)CC/C=C(\C)CCC=C(C)C)[C@@H](C)C1=O [Compound 1, Antroquinonol]
superoxide anion levels in urine (superoxide anion; day 7 to day 21, vs control FSGS mice): significantly lowered
serum superoxide anion levels (superoxide anion; day 7 to day 21, vs control FSGS mice, to a level similar to normal control): effectively attenuated
in-situ ROS production in renal tissue (DHE fluorescence) (superoxide anion; day 14 and day 21): only very low DHE fluorescence
superoxide anion levels in the kidney (superoxide anion; day 14 and day 21, vs control FSGS mice, to a level similar to normal control): effectively attenuated
TGF-β1 protein levels in kidney (ELISA) (TGF-β1; [3]): greatly abrogated
TGF-β1 protein levels in serum (ELISA) (TGF-β1; [3]): greatly abrogated
TGF-β1 protein expression in the kidney (IHC) (TGF-β1; vs control FSGS mice): significantly lower
serum IL-6 levels (IL-6; day 3, between control AcP-IgAN, AcP-IgAN+Antroq and normal control mice): no difference
serum levels of IL-6 (IL-6; day 28, vs control AcP-IgAN mice): substantially decreased
urine protein levels ([1]; 50 mg/kg by gavage daily, day 7 to day 21, vs control FSGS mice (vehicle)): greatly suppressed
serum levels of blood urea nitrogen (BUN) [1, 4]: much better renal function
serum levels of creatinine (Cr) [1, 4]: much better renal function
serum levels of BUN [1, 5]: no significant difference
serum levels of Cr [1, 5]: no significant difference
progressive renal lesions (sclerotic lesions, glomeruli containing EPHL, peri-glomerular mononuclear leukocyte infiltration), H&E [2]: greatly reduced
